Test: Mouse feeding trial of diets with different ratios and amounts of CLA isomers
Type: in vivo, ICR mice
Experimental: Based on the results of Example 1, the Inventors believe that the t10,c12 isomer is an active isomer.
The trial was conducted with 84 ICR mice purchased from Harlan Sprague Dawley (Madison, Wis.). The diets were blended using the basal diet, sugar, corn oil and one or a blend of isomers of conjugated linoleic acid (expressed as percent of diet). Each treatment consisted of 2 pens of 3 mice. Mice had food and water ad libitum. Food consumption was monitored daily and mice were weighed every other day when bedding was changed. At three weeks of feeding the diet, mice were euthanized by CO2 and final body weights were taken. Mice were then necropsied and fat pads were weighed. Mice were also analyzed for total body fat. Mice were freeze dried and ground. Duplicate samples were analyzed by proximate analysis (ether extraction, ash, kjeldahl, and moisture).

| SMILES | improvement in growth (mice fed only c9,t11 CLA, no t10,c12 present, linear) | growth, rate of gain, and feed conversion (mice receiving only c9,t11 CLA) | body fat compared to control mice (mice fed only t10,c12 CLA vs control mice not receiving CLA) | reduction in growth (mice fed t10,c12 isomer only) |
| --- | --- | --- | --- | --- |
| CCCCCC/C=C/C=C\CCCCCCCC(=O)O [c9,t11 CLA, c9,t11 octadecadienoic acid] | 16% | increased growth, rate of gain, and feed conversion | – | – |
| CCCCC/C=C\C=C\CCCCCCCCC(=O)O [t10,c12 CLA, t10,c12 octadecadienoic acid] | – | – | reduced body fat | 10% |

Source: US7094420B2, “Methods of using isomer enriched conjugated linoleic acid compositions” (Natural ASA, priority 1998, dated 2006)
